Results: patent US8772226B2, “Methods and compositions for the detection of cancer” (The Johns Hopkins University, priority 2009, dated 2014)
Starred links: 1 amine or outer side, 2 acyl side, 3 side chain; linkers in the order of their positions; H or OH if unused. Non-standard residues stand in square brackets, D forms with d. Residues, ends and D or L forms follow the SMILES beside them. No end group written: not given here. *: point of attachment. X1 = C/C=C(/C)C(=O)O[C@H]1C(C)=C2[C@H]([C@@H]1OC(=O)CCCCCCC)[C@@](C)(OC(C)=O)C[C@H](OC(=O)Cc1ccc(O)c(CCCCCN*)c1)[C@@]1(O)[C@H]2OC(=O)[C@@]1(C)O; γGlu = O=C(O)[C@H](CCC(=O)[*:2])N[*:1]; Morpholide = C1CN(*)CCO1; PhADT = not defined here; CO = O=C([*:1])[*:2]

What was measured:
CWR22H tumor = assay: Biodistribution in CWR22H tumor bearing mice; format: in vivo; settings: % Injected Dose/gram tissue, five days after single intravenous dose of 2 μmole (120 mg/kg) of prodrug
Protocol: FIGS. 4A and 4B are (A) selective accumulation of 12ADT-Asp and 12ADT-Asp-Glu in tumor tissue compared to indicated normal tissue five days after single intravenous dose of 2 μmole (120 mg/kg) (FIG. 4A discloses “Asp-Glu*Glu*Glu*Glu” as SEQ ID NO: 57); and (B) biodistribution of TG species (sum of 12ADT-Asp, 12ADT-Asp-Glu and 12ADT-Asp-Glu*Glu*Glu*Glu (SEQ ID NO: 57)) in CWR22H tumor bearing mice. Data presented as % Initial dose (ID)/gram and tumor/tissue ratios (n=4 mice).
In the course of developing a PSMA-activated TG therapy, a prodrug that was readily hydrolyzed by PSMA and selectively toxic to PSMA-producing human prostate cancers in vitro and in vivo was identified. Tissue levels of the TG analog (12ADT-Asp) that is released from the peptide carrier by PSMA were analyzed. See, for example, FIG. 4A.
The characterization of 12ADT-Asp is described in detail below. This TG analog is even more lipophilic than TG due to substitution of the butanoyl side chain of TG with a 12 carbon aminododecanoyl side chain. While it might have been expected to see accumulation of this highly lipophilic 12ADT-Asp in tumor tissue due to PSMA activation, the magnitude of accumulation of the free drug compared to plasma was unexpected. […]

SERCA = SERCA inhibition compared to TG (preliminary / earlier data); format: biochemical
[1] = Peptide stability to hydrolysis in mouse plasma; format: in vitro ADME
Source text: (§1) Some preferred peptides include a PSMA-hydrolyzable, a-linked dipeptide “cap” that are not substrates for GGH, and are more specific PSMA substrates. Combination a- and side chain-linked PSMA substrates can be highly efficient and specific. […] A number of aspartate- and glutamate-containing linkers are depicted in FIG. 1. These particular linkers can be bonded to amine groups on therapeutic drugs.

[2] = Peptide stability to hydrolysis in human plasma; format: in vitro ADME
Source text: as §1

[3] = Peptide stability in serum; format: in vitro ADME
Source text: as §1

LNCaP cells [4] = tested on: LNCaP cells
LNCaP cells [5] = assay: Cleavage assay with LNCaP cells, metabolites by LC/MS; format: cell-based, human; settings: 3 days culture with drug
[6] = target: sarcoplasmic reticulum (SR) and endoplasmic reticulum (ER) Ca2+-ATPase (SERCA) pump; settings: SERCA pump of skeletal, cardiac, muscle and brain microsomes; read-out: apparent dissociation constant; cited from earlier work
SERCA pump = target: T1, SERCA pump (Oryctolagus cuniculus, UniProt P04191); assay: Microsomal assay of SERCA pump inhibition compared to TG; format: biochemical
T1 construct: from tissue; host or cells: microsomes
Protocol: FIG. 6. Microsomal assay comparing inhibition of SERCA pump by compound 14 and TG over a range of concentrations.
All materials were purified by column chromatography with structure confirmed by NMR analysis and mass spectroscopy. The purified phenolic TG analog 14 was then tested in a previously described microsomal assay system to assess inhibition of the SERCA pump compared to TG, FIG. 6.

T1 sequence (P04191 1-994 isoform P04191-2): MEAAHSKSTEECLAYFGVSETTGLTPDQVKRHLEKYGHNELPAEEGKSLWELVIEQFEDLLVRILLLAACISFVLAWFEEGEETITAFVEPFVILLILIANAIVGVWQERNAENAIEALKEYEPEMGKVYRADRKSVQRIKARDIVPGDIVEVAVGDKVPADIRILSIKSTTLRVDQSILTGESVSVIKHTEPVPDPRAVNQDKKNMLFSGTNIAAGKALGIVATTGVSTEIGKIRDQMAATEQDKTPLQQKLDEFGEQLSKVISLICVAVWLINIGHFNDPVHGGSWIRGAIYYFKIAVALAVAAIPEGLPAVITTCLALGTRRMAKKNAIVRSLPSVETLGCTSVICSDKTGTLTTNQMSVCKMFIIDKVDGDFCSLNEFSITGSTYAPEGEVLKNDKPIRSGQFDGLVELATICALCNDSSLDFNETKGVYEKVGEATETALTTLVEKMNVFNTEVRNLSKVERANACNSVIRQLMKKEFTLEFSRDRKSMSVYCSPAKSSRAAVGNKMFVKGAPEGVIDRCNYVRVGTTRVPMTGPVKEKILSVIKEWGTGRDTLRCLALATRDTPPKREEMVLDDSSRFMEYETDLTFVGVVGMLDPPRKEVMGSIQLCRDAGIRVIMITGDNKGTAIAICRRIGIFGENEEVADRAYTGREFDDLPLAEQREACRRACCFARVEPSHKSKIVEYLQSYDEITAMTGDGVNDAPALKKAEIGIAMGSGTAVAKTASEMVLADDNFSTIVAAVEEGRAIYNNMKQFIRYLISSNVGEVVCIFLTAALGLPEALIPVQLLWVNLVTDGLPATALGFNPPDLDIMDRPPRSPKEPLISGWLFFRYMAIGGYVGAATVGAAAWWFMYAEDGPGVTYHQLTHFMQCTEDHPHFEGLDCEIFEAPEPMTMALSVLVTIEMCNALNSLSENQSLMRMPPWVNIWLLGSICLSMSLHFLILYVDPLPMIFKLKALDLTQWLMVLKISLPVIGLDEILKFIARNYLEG

C/C=C(/C)C(=O)O[C@H]1C(C)=C2[C@H]([C@@H]1OC(=O)CCCCCCC)[C@@](C)(OC(C)=O)C[C@H](OC(=O)CCCCCCCCCCCNC(=O)C[C@H](N)C(=O)O)[C@@]1(O)[C@H]2OC(=O)[C@@]1(C)O [12ADT-Asp]
Tumor/Kidney ratio (CWR22H tumor): 15.4
Tumor/Skeletal muscle ratio (CWR22H tumor): 20.5

C/C=C(/C)C(=O)O[C@H]1C(C)=C2[C@H]([C@@H]1OC(=O)CCCCCCC)[C@@](C)(OC(C)=O)C[C@H](OC(=O)CCCCCCCCCCCN)[C@@]1(O)[C@H]2OC(=O)[C@@]1(C)O [12ADT]
SERCA inhibition compared to TG (SERCA): as efficiently as does TG

N[C@@H](CC(=O)O)C(=O)N[C@@H](CCC(=O)N[C@@H](CCC(=O)N[C@@H](CC(=O)O)C(=O)N[C@@H](CCC(=O)O)C(=O)O)C(=O)O)C(=O)O [Asp-Glu*Glu*Asp-Glu] (H-D[γGlu][γGlu]DE-OH; N-terminus and C-terminus assumed)
stability to hydrolysis in plasma [1]: completely stable to hydrolysis
stability to hydrolysis in plasma [2]: completely stable to hydrolysis

NC(=O)CC[C@H](NC(=O)[C@H](CC(=O)O)NC(=O)CC[C@H](NC(=O)CC[C@H](NC(=O)CC[C@H](N)C(=O)O)C(=O)O)C(=O)O)C(=O)O [Glu*Glu*Glu*Asp-Gln] ({γGlu-γGlu-γGlu}-Asp-Gln-OH; N-terminus and C-terminus assumed)
stability in serum [3]: high stability in serum

N[C@@H](CCC(=O)N[C@@H](CCC(=O)N[C@@H](CCC(=O)N[C@@H](CC(=O)O)C(=O)N[C@@H](CCC(=O)O)C(=O)O)C(=O)O)C(=O)O)C(=O)O [Glu*Glu*Glu*Asp-Glu] ({γGlu-γGlu-γGlu}-Asp-Glu-OH; N-terminus and C-terminus assumed)
stability in serum [3]: high stability in serum

C/C=C(/C)C(=O)O[C@H]1C(C)=C2[C@H]([C@@H]1OC(=O)CCCCCCC)[C@@](C)(OC(C)=O)C[C@H](OC(=O)Cc1ccc(O)c(CCCCCNC(=O)[C@H](CC(C)C)NC(=O)[C@H](CCC(N)=O)NC(=O)[C@H](CC(C)C)NC(=O)[C@H](CCCCN)NC(=O)[C@H](CO)NC(=O)[C@H](CO)NC(=O)[C@H](Cc3c[nH]cn3)NC(=O)N3CCOCC3)c1)[C@@]1(O)[C@H]2OC(=O)[C@@]1(C)O [JHD9784, His-Ser-Ser-Lys-Leu-Gln-Leu-(PhADT)] ({Morpholide-CO}-HSSKLQL-X1)
IC50 (LNCaP cells [4]): 2.5 nM
cleavage of pro-drug by LNCaP cells (LNCaP cells [5]): can cleave

C/C=C(/C)C(=O)O[C@H]1C(C)=C2[C@H]([C@@H]1OC(=O)CCCCCCC)[C@@](C)(OC(C)=O)C[C@H](OC(=O)CCC)[C@@]1(O)[C@H]2OC(=O)[C@@]1(C)O [Thapsigargin]
Kd [6]: ≤ 0.0022 nM

C/C=C(/C)C(=O)OC1C(C)=C2[C@H]([C@@H]1OC(=O)CCCCCCC)[C@@](C)(OC(C)=O)CC(OC(=O)CCc1cc(I)c(O)c(CCCCCNC(=O)OC(C)(C)C)c1)[C@@]1(O)[C@H]2OC(=O)[C@@]1(C)O (stereo partly shown) [compound 14]
ability to inhibit the SERCA pump (SERCA pump): maintained potent ability to inhibit the SERCA pump at nanomolar concentrations
potency of SERCA pump inhibition relative to TG (fold less potent) (SERCA pump; range of concentrations, compared to TG): approximately 4 fold

(PhADT)-Glu-yGlu-yGlu-yGlu (PhADT-E[γGlu][γGlu][γGlu]; reading uncertain) [JHD9783]
cleavage of pro-drug by LNCaP cells (LNCaP cells [5]): can cleave
